Source: patent publication US10407429B2, “Pyrazolo[1,5-a]triazin-4-amine derivatives useful in therapy” (Curovir AB, priority 2015, dated 2019)
Read-outs that look alike come from different tables or passages of the source.

Columns and labels:
PI4KIIIα = PI4KIIIα (Homo sapiens, UniProt P42356); assay: Phosphatidyl inositol kinase inhibition assay (ADP-Glo Kinase Assay); assay type: biochemical
Method: (§1) Phosphatidyl Inositol Kinase Inhibition Assay Inhibition of PI4 kinases was studied using the ADP-Glo™ Kinase Assay which is a luminescent kinase assay that measures ADP formed from a kinase reaction; ADP is converted into ATP, which is converted into light by Ultra-Glo™ Luciferase. The assay is performed in two steps; first, after the kinase reaction, an equal volume of ADP-Glo™ Reagent is added to terminate the kinase reaction and deplete the remaining ATP. In the second step, the Kinase Detection Reagent is added, which simultaneously converts ADP to ATP and allows the newly synthesized ATP to be measured using a coupled luciferase/luciferin reaction. The luminescent signal produced is proportional to the activity of the kinase.

PI4KIIIβ = PI4KIIIβ (Homo sapiens, UniProt Q9UBF8); assay: as above; assay type: biochemical
Method: as §1

PI3Kα = PI3Kα (Homo sapiens, UniProt P42336); assay: Phosphatidyl inositol kinase inhibition assay (HTRF); assay type: biochemical
Source text: (§2) Phosphatidyl Inositol Kinase Inhibition Assay
(§3) Inhibition of PI3 kinases was studied using the HTRF (homogeneous time-resolved fluorescence) assay which is a universal method for identifying and characterizing the phosphotransferase activity induced by any ATP/ADP dependent target. The formation of ADP is detected by a specific monoclonal antibody labeled with Eu^3+ cryptate, and directly correlates with the amount of phosphorylated substrate in kinase assays

PI3Kβ = PI3Kβ (Homo sapiens, UniProt P42338); assay: as above; assay type: biochemical
Source text: as §2, §3

Enterovirus 6 = assay: Antiviral CPE assay in mammalian cell culture; assay type: cell-based; conditions: prevention of viral CPE, read-out: inhibition capacity (IC50) EV6
Enterovirus 30 = assay: Antiviral CPE assay in mammalian cell culture; assay type: cell-based; conditions: read-out: inhibition capacity (IC50) EV30
Enterovirus 68 = assay: Antiviral CPE assay in mammalian cell culture; assay type: cell-based; conditions: Enterovirus D
Enterovirus 71 = assay: Antiviral CPE assay in mammalian cell culture; assay type: cell-based; conditions: Enterovirus A, EV71, prevention of viral CPE, read-out: inhibition capacity (IC50) EV71
coxsackie B1 virus = assay: Antiviral CPE assay in mammalian cell culture; assay type: cell-based; conditions: read-out: inhibition capacity (IC50) Bl
coxsackie B2 virus = assay: Antiviral CPE assay in mammalian cell culture; assay type: cell-based; conditions: read-out: inhibition capacity (IC50) B2
coxsackie B3 virus = assay: Antiviral CPE assay in mammalian cell culture; assay type: cell-based; conditions: Enterovirus B
coxsackie B 4 virus = assay: Antiviral CPE assay in mammalian cell culture; assay type: cell-based; conditions: Enterovirus B
coxsackie B5virus = assay: Antiviral CPE assay in mammalian cell culture; assay type: cell-based; conditions: read-out: inhibition capacity (IC50) B5
polio virus Sabin 1 = assay: organism not typed; assay type: cell-based; conditions: read-out: inhibition capacity (IC50) Polio 1
[1] = EV68, read-out: inhibition capacity (IC50) EV68
[2] = B3, read-out: inhibition capacity (IC50) B3
[3] = B4, read-out: inhibition capacity (IC50) B4

PI3Kα, sequence (P42336 whole entry, species assumed): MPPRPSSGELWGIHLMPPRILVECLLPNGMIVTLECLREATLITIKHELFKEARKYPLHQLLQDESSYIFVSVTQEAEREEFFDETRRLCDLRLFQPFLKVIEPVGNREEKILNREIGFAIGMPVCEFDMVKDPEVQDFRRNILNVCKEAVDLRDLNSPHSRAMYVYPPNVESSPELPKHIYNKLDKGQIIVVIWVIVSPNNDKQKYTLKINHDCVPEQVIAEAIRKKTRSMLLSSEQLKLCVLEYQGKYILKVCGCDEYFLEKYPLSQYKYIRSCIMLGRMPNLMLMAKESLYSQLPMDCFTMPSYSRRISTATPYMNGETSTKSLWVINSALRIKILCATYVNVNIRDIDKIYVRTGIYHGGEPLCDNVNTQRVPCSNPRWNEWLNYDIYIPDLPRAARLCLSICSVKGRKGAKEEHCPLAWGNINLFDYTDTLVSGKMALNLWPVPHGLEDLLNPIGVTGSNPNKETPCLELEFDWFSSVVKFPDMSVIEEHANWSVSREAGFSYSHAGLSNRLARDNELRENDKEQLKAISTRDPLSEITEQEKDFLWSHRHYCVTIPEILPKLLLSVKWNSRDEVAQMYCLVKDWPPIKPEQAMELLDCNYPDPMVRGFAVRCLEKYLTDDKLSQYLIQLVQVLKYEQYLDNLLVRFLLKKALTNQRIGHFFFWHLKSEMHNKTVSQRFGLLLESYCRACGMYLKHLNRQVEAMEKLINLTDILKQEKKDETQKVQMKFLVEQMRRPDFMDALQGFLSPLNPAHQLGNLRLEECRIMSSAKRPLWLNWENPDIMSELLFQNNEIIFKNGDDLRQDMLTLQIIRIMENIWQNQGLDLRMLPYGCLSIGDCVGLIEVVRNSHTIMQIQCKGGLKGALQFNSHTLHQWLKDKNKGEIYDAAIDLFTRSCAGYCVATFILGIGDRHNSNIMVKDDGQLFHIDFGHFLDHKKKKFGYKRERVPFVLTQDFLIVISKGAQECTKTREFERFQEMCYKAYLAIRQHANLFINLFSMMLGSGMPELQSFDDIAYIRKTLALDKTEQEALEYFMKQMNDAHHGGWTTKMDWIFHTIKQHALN
PI3Kα, sequence (P27986 whole entry partner, species assumed): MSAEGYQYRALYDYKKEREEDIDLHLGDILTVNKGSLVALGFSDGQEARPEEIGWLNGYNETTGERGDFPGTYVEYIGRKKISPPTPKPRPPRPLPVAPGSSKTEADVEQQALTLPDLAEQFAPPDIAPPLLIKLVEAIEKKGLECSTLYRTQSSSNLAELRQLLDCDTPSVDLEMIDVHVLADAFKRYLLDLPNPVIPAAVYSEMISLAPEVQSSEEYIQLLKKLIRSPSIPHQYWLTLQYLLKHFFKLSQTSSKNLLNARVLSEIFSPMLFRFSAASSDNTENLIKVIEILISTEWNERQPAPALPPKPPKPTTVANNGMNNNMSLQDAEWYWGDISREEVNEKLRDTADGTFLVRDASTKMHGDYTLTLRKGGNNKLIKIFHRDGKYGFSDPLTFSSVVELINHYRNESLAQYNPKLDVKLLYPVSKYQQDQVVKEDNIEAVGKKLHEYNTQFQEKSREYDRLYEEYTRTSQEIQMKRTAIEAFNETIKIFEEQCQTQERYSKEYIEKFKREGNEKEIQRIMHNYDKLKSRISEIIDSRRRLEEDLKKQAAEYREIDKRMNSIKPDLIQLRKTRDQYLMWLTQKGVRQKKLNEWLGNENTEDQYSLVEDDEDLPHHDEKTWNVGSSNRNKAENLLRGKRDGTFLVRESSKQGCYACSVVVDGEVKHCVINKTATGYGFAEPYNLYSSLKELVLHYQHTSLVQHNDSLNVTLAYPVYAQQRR
PI4KIIIα, sequence (P42356 whole entry): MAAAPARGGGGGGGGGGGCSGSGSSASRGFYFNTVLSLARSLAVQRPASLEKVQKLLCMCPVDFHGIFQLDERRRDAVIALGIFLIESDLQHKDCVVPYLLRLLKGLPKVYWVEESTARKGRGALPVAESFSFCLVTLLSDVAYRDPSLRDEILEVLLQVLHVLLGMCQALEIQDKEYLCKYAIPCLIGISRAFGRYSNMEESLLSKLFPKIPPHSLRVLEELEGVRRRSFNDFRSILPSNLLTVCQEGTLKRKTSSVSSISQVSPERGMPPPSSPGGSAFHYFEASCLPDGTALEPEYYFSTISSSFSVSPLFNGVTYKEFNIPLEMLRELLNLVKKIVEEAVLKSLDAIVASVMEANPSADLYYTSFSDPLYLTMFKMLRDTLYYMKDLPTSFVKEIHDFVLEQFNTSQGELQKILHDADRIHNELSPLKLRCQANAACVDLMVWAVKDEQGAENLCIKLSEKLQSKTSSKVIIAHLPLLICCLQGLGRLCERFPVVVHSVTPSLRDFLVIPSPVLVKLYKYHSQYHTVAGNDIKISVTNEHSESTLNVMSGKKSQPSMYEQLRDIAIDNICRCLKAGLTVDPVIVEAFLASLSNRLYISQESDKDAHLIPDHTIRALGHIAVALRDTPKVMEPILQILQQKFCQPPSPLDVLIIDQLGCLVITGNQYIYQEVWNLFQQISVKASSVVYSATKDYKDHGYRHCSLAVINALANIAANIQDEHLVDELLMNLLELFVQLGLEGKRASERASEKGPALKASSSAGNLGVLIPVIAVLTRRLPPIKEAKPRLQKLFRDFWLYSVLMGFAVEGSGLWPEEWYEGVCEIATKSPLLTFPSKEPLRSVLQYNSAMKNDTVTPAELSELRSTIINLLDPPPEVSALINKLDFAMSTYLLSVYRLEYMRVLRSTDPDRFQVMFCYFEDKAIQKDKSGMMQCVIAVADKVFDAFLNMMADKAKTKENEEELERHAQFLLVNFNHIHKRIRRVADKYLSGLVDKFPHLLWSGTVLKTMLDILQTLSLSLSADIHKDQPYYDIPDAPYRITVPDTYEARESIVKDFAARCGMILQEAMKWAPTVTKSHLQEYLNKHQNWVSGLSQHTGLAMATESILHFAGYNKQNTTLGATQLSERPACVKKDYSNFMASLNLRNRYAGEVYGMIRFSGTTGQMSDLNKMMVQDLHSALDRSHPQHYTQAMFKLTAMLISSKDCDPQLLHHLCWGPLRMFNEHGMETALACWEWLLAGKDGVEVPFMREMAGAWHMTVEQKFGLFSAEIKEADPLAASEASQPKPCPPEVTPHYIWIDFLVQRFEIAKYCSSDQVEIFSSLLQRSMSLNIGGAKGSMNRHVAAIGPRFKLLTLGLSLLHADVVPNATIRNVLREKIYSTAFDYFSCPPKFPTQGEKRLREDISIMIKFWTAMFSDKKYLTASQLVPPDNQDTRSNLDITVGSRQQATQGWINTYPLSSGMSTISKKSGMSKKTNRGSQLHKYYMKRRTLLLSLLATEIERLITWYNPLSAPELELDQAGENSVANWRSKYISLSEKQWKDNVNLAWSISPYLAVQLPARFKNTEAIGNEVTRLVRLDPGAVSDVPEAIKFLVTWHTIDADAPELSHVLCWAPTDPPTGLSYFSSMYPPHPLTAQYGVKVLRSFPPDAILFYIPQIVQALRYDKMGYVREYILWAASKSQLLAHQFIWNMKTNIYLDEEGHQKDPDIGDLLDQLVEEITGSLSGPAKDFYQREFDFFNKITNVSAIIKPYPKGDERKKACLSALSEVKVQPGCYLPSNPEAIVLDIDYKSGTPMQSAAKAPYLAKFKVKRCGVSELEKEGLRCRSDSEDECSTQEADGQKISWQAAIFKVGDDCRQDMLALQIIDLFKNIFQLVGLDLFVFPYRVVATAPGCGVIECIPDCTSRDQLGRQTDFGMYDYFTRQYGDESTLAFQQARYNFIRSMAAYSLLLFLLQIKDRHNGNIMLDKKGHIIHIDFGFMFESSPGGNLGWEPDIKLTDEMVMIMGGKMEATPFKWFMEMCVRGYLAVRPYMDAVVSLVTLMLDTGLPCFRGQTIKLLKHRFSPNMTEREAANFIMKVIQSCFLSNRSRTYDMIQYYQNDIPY
PI4KIIIβ, sequence (Q9UBF8 whole entry): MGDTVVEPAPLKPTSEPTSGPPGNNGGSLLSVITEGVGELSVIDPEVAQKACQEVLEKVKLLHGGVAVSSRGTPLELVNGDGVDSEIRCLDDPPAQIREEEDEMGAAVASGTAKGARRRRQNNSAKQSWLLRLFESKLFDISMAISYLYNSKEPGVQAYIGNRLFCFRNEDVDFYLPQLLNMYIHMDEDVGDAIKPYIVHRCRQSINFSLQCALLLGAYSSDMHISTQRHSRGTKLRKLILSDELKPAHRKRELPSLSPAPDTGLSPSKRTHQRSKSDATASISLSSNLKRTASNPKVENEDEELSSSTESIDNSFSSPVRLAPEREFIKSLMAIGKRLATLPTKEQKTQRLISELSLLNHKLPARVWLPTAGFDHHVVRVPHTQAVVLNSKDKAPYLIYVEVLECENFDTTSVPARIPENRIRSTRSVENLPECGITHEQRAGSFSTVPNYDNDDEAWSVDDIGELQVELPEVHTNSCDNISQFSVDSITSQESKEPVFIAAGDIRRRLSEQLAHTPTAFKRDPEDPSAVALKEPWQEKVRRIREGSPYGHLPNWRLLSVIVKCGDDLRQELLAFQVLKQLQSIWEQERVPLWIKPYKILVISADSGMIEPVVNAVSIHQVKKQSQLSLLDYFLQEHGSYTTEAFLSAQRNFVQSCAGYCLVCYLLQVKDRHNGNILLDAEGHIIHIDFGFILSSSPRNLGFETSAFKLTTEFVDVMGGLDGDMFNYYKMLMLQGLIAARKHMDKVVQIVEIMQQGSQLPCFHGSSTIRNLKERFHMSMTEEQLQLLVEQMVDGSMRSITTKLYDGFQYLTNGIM

| SMILES | IC50 (Enterovirus 6) | IC50 (Enterovirus 30; Enterovirus) | IC50 (Enterovirus 68; [1]) | IC50 (Enterovirus 71) | IC50 (coxsackie B1 virus) | IC50 (coxsackie B2 virus) | IC50 (coxsackie B3 virus; [2]) | IC50 (coxsackie B 4 virus; [3]) | IC50 (coxsackie B5virus) | IC50 (polio virus Sabin 1) | further results |
| --- | --- | --- | --- | --- | --- | --- | --- | --- | --- | --- | --- |
| COc1ccc(-c2c(C)nn3c(NCc4ccncc4)nc(C)nc23)cc1OC [Example 6, 8-(3,4-dimethoxyphenyl)-2,7-dimethyl-N-(4-pyridylmethyl)pyrazolo[1,5-a][1,3,5]triazin-4-amine] | < 10 nM | < 100 nM | < 10 nM | < 10 nM | < 10 nM | < 10 nM | < 10 nM | < 10 nM | < 10 nM | < 10 nM | IC50 (PI4KIIIα): 3200 nM; IC50 (PI4KIIIβ): 1.3 nM; IC50 (PI3Kα): 7300 nM; IC50 (PI3Kβ): > 10000 nM |
| COc1ccc(-c2c(C)nn3c(NCc4ccc(S(N)(=O)=O)cc4)nc(C)nc23)cc1OC [Example 14, 4-[[[8-(3,4-dimethoxyphenyl)-2,7-dimethyl-pyrazolo[1,5-a][1,3,5]triazin-4-yl]amino]methyl]benzenesulfonamide] |  | < 10 nM | < 10 nM | < 10 nM | < 100 nM | < 100 nM | < 100 nM | < 100 nM | < 10 nM | < 10 nM | IC50 (PI4KIIIα): 1300 nM; IC50 (PI4KIIIβ): 2.1 nM; IC50 (PI3Kα): > 10000 nM; IC50 (PI3Kβ): > 10000 nM |
| COc1ccc(-c2c(C)nn3c(NCc4cccnc4)nc(C)nc23)cc1OC [Example 22, 8-(3,4-dimethoxyphenyl)-2,7-dimethyl-N-(3-pyridylmethyl)pyrazolo[1,5-a][1,3,5]triazin-4-amine] | < 100 nM | < 100 nM | < 100 nM | < 100 nM | < 100 nM | < 100 nM | < 100 nM | < 100 nM | < 100 nM | < 100 nM |  |
| COc1ccc(-c2c(C)nn3c(NCc4ccc(C)o4)nc(C)nc23)cc1OC [Example 23, 8-(3,4-dimethoxyphenyl)-2,7-dimethyl-N-[(5-methyl-2-furyl)methyl]pyrazolo[1,5-a][1,3,5]triazin-4-amine] | < 100 nM | < 100 nM | < 100 nM | < 100 nM | < 10 nM | < 100 nM | < 100 nM | < 10 nM | < 100 nM | < 10 nM |  |
| COC(=O)NS(=O)(=O)c1ccc(CNc2nc(C)nc3c(-c4ccc(OC)c(OC)c4)c(C)nn23)cc1 [Example 24, methyl N-[4-[[[8-(3,4-dimethoxyphenyl)-2,7-dimethyl-pyrazolo[1,5-a][1,3,5]triazin-4-yl]amino]methyl]phenyl]sulfonylcarbamate] | > 1000 nM | > 1000 nM | < 1000 nM | < 1000 nM | > 1000 nM | < 1000 nM | > 1000 nM | < 1000 nM | > 1000 nM | < 1000 nM |  |
| CCC(=O)NS(=O)(=O)c1ccc(CNc2nc(C)nc3c(-c4ccc(OC)c(OC)c4)c(C)nn23)cc1 [Example 25, N-[4-[[[8-(3,4-dimethoxyphenyl)-2,7-dimethyl-pyrazolo[1,5-a][1,3,5]triazin-4-yl]amino]methyl]phenyl]sulfonylpropanamide] | > 1000 nM | > 1000 nM | < 1000 nM | > 1000 nM | > 1000 nM | > 1000 nM | > 1000 nM | > 1000 nM | > 1000 nM | > 1000 nM |  |
| CNS(=O)(=O)c1ccc(CNc2nc(C)nc3c(-c4ccc(OC)c(OC)c4)c(C)nn23)cc1 [Example 26, N-methyl-4-[[[8-(3,4-dimethoxyphenyl)-2,7-dimethyl-pyrazolo[1,5-a][1,3,5]triazin-4-yl]amino]methyl]benzenesulfonamide] | < 1000 nM | < 1000 nM | > 1000 nM | < 1000 nM | < 1000 nM | < 100 nM | < 1000 nM | < 100 nM | < 1000 nM | < 100 nM |  |
| COc1ccc(-c2c(C)nn3c(NCc4ccn(C)n4)nc(C)nc23)cc1OC [Example 27, 8-(3,4-dimethoxyphenyl)-2,7-dimethyl-N-[(1-methyl-1H-pyrazol-3-yl)methyl]pyrazolo[1,5-a][1,3,5]triazin-4-amine] | < 1000 nM | < 100 nM | < 10 nM | < 100 nM | < 10 nM | < 10 nM | < 100 nM | < 10 nM | < 100 nM | < 10 nM |  |
| COc1ccc(-c2c(C)nn3c(NCc4cnco4)nc(C)nc23)cc1OC [Example 28, 8-(3,4-dimethoxyphenyl)-2,7-dimethyl-N-[(1,3-oxazol-5-yl)methyl]pyrazolo[1,5-a][1,3,5]triazin-4-amine] | < 100 nM | > 1000 nM | < 10 nM | < 100 nM | < 100 nM | < 100 nM | < 100 nM | < 100 nM | < 1000 nM | < 100 nM |  |
| COc1ccc(-c2c(C)nn3c(NCC4CCNCC4)nc(C)nc23)cc1OC [Example 29, 8-(3,4-dimethoxyphenyl)-2,7-dimethyl-N-[(piperidin-4-yl)methyl]pyrazolo[1,5-a][1,3,5]triazin-4-amine] | > 1000 nM | > 1000 nM | > 1000 nM | > 1000 nM | > 1000 nM | > 1000 nM | > 1000 nM | > 1000 nM | > 1000 nM | > 1000 nM |  |
| COc1ccc(-c2c(C)nn3c(NCc4cnc(C)nc4)nc(C)nc23)cc1OC [Example 30, 8-(3,4-dimethoxyphenyl)-2,7-dimethyl-N-[(2-methylpyrimidin-5-yl)methyl]pyrazolo[1,5-a][1,3,5]triazin-4-amine] | < 1000 nM | < 100 nM | < 100 nM | < 100 nM | < 1000 nM | < 1000 nM | < 1000 nM | < 100 nM | < 1000 nM | < 100 nM |  |
| COc1ccc(-c2c(C)nn3c(NCc4ccnnc4)nc(C)nc23)cc1OC [Example 31, 8-(3,4-dimethoxyphenyl)-2,7-dimethyl-N-[(pyridazin-4-yl)methyl]pyrazolo[1,5-a][1,3,5]triazin-4-amine] | < 1000 nM | > 1000 nM | < 100 nM | < 100 nM | < 1000 nM | < 1000 nM | < 1000 nM | < 10 nM | < 1000 nM | < 1000 nM |  |
| COc1ccc(-c2c(C)nn3c(NCc4ccc(C)nc4)nc(C)nc23)cc1OC [Example 32, 8-(3,4-dimethoxyphenyl)-2,7-dimethyl-N-[(6-methylpyridin-3-yl)methyl]pyrazolo[1,5-a][1,3,5]triazin-4-amine] | < 100 nM |  |  | < 100 nM |  |  |  |  |  | < 100 nM | IC50 (Enterovirus 30; prevention of viral CPE, mammalian cell culture, Enterovirus 30): < 10 nM; IC50 (Enterovirus 68; EV68, prevention of viral CPE, mammalian cell culture, Enterovirus 68, read-out: inhibition capacity (IC50) EV68): < 100 nM; IC50 (coxsackie B1 virus; prevention of viral CPE, mammalian cell culture, coxsackie B1 virus): < 100 nM; IC50 (coxsackie B2 virus; prevention of viral CPE, mammalian cell culture, coxsackie B2 virus): < 100 nM; IC50 (coxsackie B3 virus; prevention of viral CPE, mammalian cell culture, coxsackie B3 virus, read-out: inhibition capacity (IC50) B3): < 10 nM; IC50 (coxsackie B 4 virus; prevention of viral CPE, mammalian cell culture, coxsackie B4 virus, read-out: inhibition capacity (IC50) B4): < 100 nM; IC50 (coxsackie B5virus; prevention of viral CPE, mammalian cell culture, coxsackie B5 virus): < 100 nM |
